The record followed here is PubChem BioAssay (NCI).

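96-well plates; 48 h exposure; 5 concentrations. Endpoints by linear interpolation between flanking doses. Not reached: highest tested concentration assigned. TGI marks complete inhibition of growth.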 Where a SMILES comes first, the peptide text is derived from it. [ ]: non-standard residue; d: D form. The star is where a group is joined. ξ: configuration not given here. NMeF = CN[CH](Cc1ccccc1)C(=O)O; ξNMe2Val = CC(C)C(C(=O)*)N(C)C; NMeV = CN[CH](C(=O)O)C(C)C; ξNMeV = CNC(C(=O)O)C(C)C; Boc = CC(C)(C)OC(=O)*; OBn = c1ccc(CO*)cc1; OtBu = CC(C)(C)O* A value given as a limit tells only on which side of the number the result lay.

Some test systems named below: CCRF-CEM leukemia; HCT-116 colon; HOP-62 NSCLC; IGROV1 ovarian; MALME-3M melanoma; NCI-H23 lung; RXF 393 renal; SK-MEL-28 melanoma; MCF7 breast; PC-3 prostate.
Common to all, as to assay: NCI-60 cell line screen, 48 h

For the molecule `COC(=O)C(CCC1(C)OCCO1)=[N+]=[N-]`, the TGI in the assay with CCRF-CEM leukemia, in the assay with HCT-116 colon, in the assay with HOP-62 NSCLC, in the assay with IGROV1 ovarian, in the assay with MALME-3M melanoma and in the assay on NCI-H23 lung was above 100 µM each time. Besides, the TGI in the assay with RXF 393 renal and with SK-MEL-28 melanoma was above 100 µM each time.

Regarding `CCCCOC(=O)NC(=O)c1cn(CCCOC(=O)CCCCCCCCC(=O)OCCCn2cc(C(=O)NC(=O)OCCCC)c(=O)n(C)c2=O)c(=O)n(C)c1=O`, the TGI in the assay on CCRF-CEM leukemia, in the assay with HCT-116 colon, in the assay on HOP-62 NSCLC, in the assay with IGROV1 ovarian, in the assay on MALME-3M melanoma and with NCI-H23 lung was above 100 µM throughout. Moreover, the TGI in the assay on RXF 393 renal and in the assay on SK-MEL-28 melanoma was above 100 µM in each case.

With `O=C1[C@@H]2C(c3ccccc3[N+](=O)[O-])=NO[C@@H]2C(=O)N1c1ccc(Cc2ccc(N3C(=O)[C@H]4C(c5ccccc5[N+](=O)[O-])=NO[C@H]4C3=O)cc2)cc1`, the TGI with CCRF-CEM leukemia, with HCT-116 colon, in the assay with HOP-62 NSCLC, in the assay on IGROV1 ovarian, in the assay with MALME-3M melanoma and with NCI-H23 lung was above 100 µM each time. Moreover, the TGI in the assay with RXF 393 renal and in the assay with SK-MEL-28 melanoma was above 100 µM throughout.

As for `C=C(C)CCC1C=[N+]([O-])OC(C)(C)C1(C)C` (stereo not given), the TGI in the assay on CCRF-CEM leukemia, in the assay with HCT-116 colon, in the assay on HOP-62 NSCLC, in the assay with IGROV1 ovarian, in the assay with MCF7 breast and with RXF 393 renal was above 100 µM each time.

Turning to `CC(C)C(C(=O)N(C)C(Cc1ccccc1)C(=O)N(C)C(C(=O)N(C)C(C(=O)N1CCCC1C(=O)OC(C)(C)C)C(C)C)C(C)C)N(C)C` (stereo not given) (ξNMe2Val-[NMeF][NMeV][NMeV]P-OtBu; configuration not given here), the TGI in the assay with CCRF-CEM leukemia, in the assay on HCT-116 colon, in the assay on HOP-62 NSCLC, with IGROV1 ovarian and in the assay with NCI-H23 lung was above 100 µM throughout.

As to `N#COc1ccc(Oc2ccc(OC#N)cc2)cc1`, the TGI was 50.4 µM in the assay with CCRF-CEM leukemia; above 100 µM in the assay on HCT-116 colon; above 100 µM in the assay on HOP-62 NSCLC; above 100 µM in the assay with IGROV1 ovarian; above 100 µM in the assay on MALME-3M melanoma; above 100 µM with NCI-H23 lung. Besides, the TGI with RXF 393 renal and with SK-MEL-28 melanoma was above 100 µM in each case.

As to `O=c1/c(=C/c2ccccn2)sc2nc3cc4c(cc3n12)OCCO4`, the TGI with CCRF-CEM leukemia, with HCT-116 colon, in the assay with HOP-62 NSCLC, in the assay on IGROV1 ovarian, in the assay on MALME-3M melanoma and in the assay with NCI-H23 lung was above 100 µM throughout. Also, the TGI in the assay with PC-3 prostate, in the assay with RXF 393 renal and in the assay on SK-MEL-28 melanoma was above 100 µM throughout.

Turning to `CC(=O)OCC1OC(n2c(=S)n(-c3ccccc3)c(=O)c3cc(Br)ccc32)C(OC(C)=O)C1OC(C)=O` (stereo not given), the TGI in the assay with HCT-116 colon, in the assay with HOP-62 NSCLC, with IGROV1 ovarian, with MALME-3M melanoma, with NCI-H23 lung and with RXF 393 renal was above 100 µM in each case. In the assay on SK-MEL-28 melanoma, this molecule gave a TGI above 100 µM.

`CCCCCCCCCCCC[N+]12CC[N+](C)(CC1)CC2`: the TGI in the assay with CCRF-CEM leukemia was 53.3 µM; in the assay with HCT-116 colon it was above 100 µM; in the assay on HOP-62 NSCLC it was above 100 µM; with IGROV1 ovarian, 11.8 µM; in the assay on MALME-3M melanoma, above 100 µM; in the assay on NCI-H23 lung, 60.9 µM. Moreover, the TGI is 3.34 µM in the assay with RXF 393 renal and above 100 µM with SK-MEL-28 melanoma.

As for `Brc1ccc(-c2cc3c(cc2C2SCCS2)OCO3)cc1`, the TGI in the assay with CCRF-CEM leukemia, with HCT-116 colon, with HOP-62 NSCLC, in the assay on IGROV1 ovarian, with MALME-3M melanoma and in the assay on NCI-H23 lung was above 100 µM throughout. Moreover, the TGI with RXF 393 renal is 77.2 µM; with SK-MEL-28 melanoma it was above 100 µM.

For `CN(C)CCC[N+]1=Nc2cccc3cccc(c23)N1`, the TGI with CCRF-CEM leukemia was 80.8 µM; in the assay on HCT-116 colon it was above 100 µM; in the assay with HOP-62 NSCLC it was above 100 µM; in the assay with IGROV1 ovarian, above 100 µM; with MALME-3M melanoma, above 100 µM; in the assay with NCI-H23 lung, above 100 µM. The molecule also had a TGI in the assay on SK-MEL-28 melanoma above 100 µM.

Consider `COc1ccc(C2=Nc3ccccc3N=C(SC)C2)cc1`, for which the TGI is 42 µM in the assay on CCRF-CEM leukemia; above 100 µM in the assay with HCT-116 colon; above 100 µM with HOP-62 NSCLC; above 100 µM in the assay with IGROV1 ovarian; above 100 µM in the assay with MALME-3M melanoma; above 100 µM in the assay with NCI-H23 lung. For the same molecule, the TGI with RXF 393 renal and in the assay with SK-MEL-28 melanoma was above 100 µM in each case.

Regarding `O=C1Nc2ccc(Cl)c(I)c2C1=O`, the TGI in the assay with CCRF-CEM leukemia was 57.4 µM; with HCT-116 colon, 28.8 µM; in the assay with HOP-62 NSCLC it was 34.8 µM; in the assay on IGROV1 ovarian, 30.9 µM; in the assay on MALME-3M melanoma, 34.8 µM; with NCI-H23 lung it was 37.6 µM. For the same molecule, the TGI with RXF 393 renal came to 29.8 µM; in the assay on SK-MEL-28 melanoma it was 31.7 µM.

With `CC(=O)[C@@]1(c2ccccc2)CC2(CCN(C)CC2)O[C@H]1C`, the TGI in the assay with HCT-116 colon, with HOP-62 NSCLC, in the assay with IGROV1 ovarian, with MALME-3M melanoma, in the assay with NCI-H23 lung and with RXF 393 renal was above 100 µM each time. In the assay on SK-MEL-28 melanoma, this molecule gave a TGI above 100 µM.

With `CCCCCCCCCCCCCS(=O)(=O)NCC(N)=O`, the TGI in the assay on CCRF-CEM leukemia, in the assay with HCT-116 colon, in the assay with HOP-62 NSCLC, with IGROV1 ovarian, in the assay on MALME-3M melanoma and in the assay on NCI-H23 lung was above 100 µM throughout. For the same molecule, the TGI with RXF 393 renal and with SK-MEL-28 melanoma was above 100 µM in each case.

For the molecule `CSC(C1c2ccccc2N(C)c2[nH]c(=O)n(C)c(=O)c21)S(=O)(=O)c1ccc(C)cc1` (stereo not given), the TGI in the assay on CCRF-CEM leukemia, in the assay with HCT-116 colon, in the assay on HOP-62 NSCLC, with IGROV1 ovarian, in the assay on MALME-3M melanoma and with NCI-H23 lung was above 100 µM throughout. For the same molecule, in the assay with SK-MEL-28 melanoma, the TGI was above 100 µM.

`Cc1ccc(S(=O)(=O)NNS(C)(=O)=O)cc1`: the TGI with CCRF-CEM leukemia, in the assay on HCT-116 colon, in the assay on HOP-62 NSCLC, in the assay with IGROV1 ovarian, in the assay with MALME-3M melanoma and in the assay with NCI-H23 lung was above 100 µM each time. The molecule also gave a TGI with RXF 393 renal above 100 µM.

With `Cc1ccc(Nc2nc(-c3ccc(-c4ccc([N+](=O)[O-])cc4)o3)cs2)cc1`, the TGI in the assay with HCT-116 colon is above 100 µM; with HOP-62 NSCLC, above 100 µM; in the assay with IGROV1 ovarian it was above 100 µM; in the assay with MALME-3M melanoma, above 100 µM; in the assay on NCI-H23 lung, 94.5 µM; in the assay with SK-MEL-28 melanoma, above 100 µM.

With `CC(C)C(C(=O)N(C)[C@H](C(=O)N1CCC[C@H]1C(=O)N(C)[C@@H](Cc1ccccc1)C(=O)OCc1ccccc1)C(C)C)N(C)C(=O)[C@@H](NC(=O)OC(C)(C)C)C(C)C` (stereo not given in full) (Boc-V[ξNMeV][NMeV]P[NMeF]-OBn), the TGI in the assay on CCRF-CEM leukemia was above 31.6 µM; with HCT-116 colon, above 31.6 µM; in the assay on HOP-62 NSCLC, above 31.6 µM; in the assay on IGROV1 ovarian, above 31.6 µM; in the assay on MALME-3M melanoma, above 100 µM; in the assay with NCI-H23 lung, above 100 µM. Also, the TGI with RXF 393 renal and in the assay with SK-MEL-28 melanoma was above 31.6 µM in each case.

For the molecule `CC(=O)OCC1OC(N=[N+]=[N-])C(OC(C)=O)C(OC(C)=O)C1OC1OC(COC(C)=O)C(OC(C)=O)C(OC(C)=O)C1OC(C)=O` (stereo not given), the TGI in the assay with CCRF-CEM leukemia, in the assay with IGROV1 ovarian, in the assay on MALME-3M melanoma, in the assay on NCI-H23 lung, in the assay with RXF 393 renal and with SK-MEL-28 melanoma was above 100 µM throughout.

Take `CCN(CC)c1c(C)nnn1C1OC(COC(C)=O)C(OC(C)=O)C(OC(C)=O)C1OC(C)=O` (stereo not given): the TGI in the assay with CCRF-CEM leukemia, in the assay with HCT-116 colon, with HOP-62 NSCLC, in the assay on IGROV1 ovarian, in the assay on MALME-3M melanoma and in the assay on NCI-H23 lung was above 100 µM throughout. In the assay on SK-MEL-28 melanoma, this molecule yielded a TGI above 100 µM.

In the case of `CC#COS(=O)(=O)c1ccc(C)cc1`, the TGI in the assay on CCRF-CEM leukemia, in the assay on HCT-116 colon, with HOP-62 NSCLC, with IGROV1 ovarian, in the assay with MALME-3M melanoma and in the assay on NCI-H23 lung was above 100 µM each time.

On to `COc1ccc([C@H]2CC3C(=O)N(c4ccc(OC)cc4)C(=O)C3c3[nH]c4ccccc4c32)cc1` (stereo not given in full), for which the TGI in the assay with CCRF-CEM leukemia, in the assay on HCT-116 colon, in the assay on HOP-62 NSCLC, with IGROV1 ovarian, with MALME-3M melanoma and in the assay with NCI-H23 lung was above 100 µM throughout. Besides, the TGI with SK-MEL-28 melanoma is above 100 µM.

In the case of `CC(=O)Nc1ccc(/C=c2\sc3nnc(-c4cccnc4)n3c2=O)cc1`, the TGI amounted to 53.9 µM in the assay on CCRF-CEM leukemia; 28.9 µM in the assay with HCT-116 colon; 52.6 µM in the assay with HOP-62 NSCLC; 32.5 µM in the assay with IGROV1 ovarian; 37.3 µM with MALME-3M melanoma; 31.4 µM in the assay on NCI-H23 lung. For the same molecule, the figures for the TGI in the assay on RXF 393 renal and in the assay on SK-MEL-28 melanoma were 37.2 µM and 33 µM, respectively.
